# In patent EP0329348B1, “2',3'-Dideoxy-2',2'-difluoronucleosides” (ELI LILLY AND COMPANY, priority 1988, dated 1989):
# Experiments:
# Assay type in all cases: cell-based
# [1] = test system: HSV-2; assay: Plaque-reduction study against HSV-2; conditions: HSV-2 plaque reduction
# Experimental: The following plaque-reduction study provides a quantitative evaluation of inhibitors of virus multiplication and establishes the antiviral activity of a representative compound of the present invention. According to this study, susceptible cells (BSC-1, Hela, MDCK, etc.) were grown in 25 cm² Falcon flasks at 37°C in Medium 199 with 5 percent inactivated fetal bovine serum (FBS), penicillin (150 units/ml) and streptomycin (150 »g/ml). When confluent monolayers were formed, the growth medium was removed and 0.3 ml of an appropriate dilution of the virus was added to each flask. After adsorption for one hour at room temperature, the infected cell sheet was overlaid with equal parts of 1 percent Agarose and 2x Medium 199, 2.5 percent FBS, penicillin, and streptomycin. The compound to be tested was dissolved in dimethyl sulfoxide (DMSO) at a concentration of 10,000 »g/ml and an aliquot of the resulting solution was diluted to the desired concentration with the agar medium mixture. Flasks were incubated at 37°C until control flasks indicated optimum plaque size of about 2 to about 10 mm. A solution containing 10 percent formalin by volume and 2 percent sodium acetate by volume was added to each flask to inactivate the virus and fix the cell sheet to the plastic surface. The plaques were counted after staining the surrounding cell areas with crystal violet. […]
# [2] = test system: human leukemic cells (CCRF-CEM cell line); assay: Cytotoxicity screen: growth inhibition of human leukemic cells; conditions: read-out: IC₅₀ (concentration giving 50% growth inhibition)
# Text: See, e.g., Miller et al., in J. Med. Chem. Vol. 20, No. 3 409 (1977) and Sweeney, et al., in Cancer Research 38, 2886 (1978).
# The compounds of the present invention represented by Formula I are cytostatic in that they inhibit the growth of human leukemic cells (CCRF-CEM cell line). Table 1 below gives the results of such testing of compounds representative of those in Formula I. In the Table, column 1 gives the example number of the compound and column 2 the IC₅₀ (concentration giving 50% growth inhibition) in mcg/ml.
# [3] = test system: HSV-1; assay: Plaque-reduction study against HSV-1; conditions: HSV-1 plaque reduction
# Experimental: The following plaque-reduction study provides a quantitative evaluation of inhibitors of virus multiplication and establishes the antiviral activity of a representative compound of the present invention. According to this study, susceptible cells (BSC-1, Hela, MDCK, etc.) were grown in 25 cm² Falcon flasks at 37°C in Medium 199 with 5 percent inactivated fetal bovine serum (FBS), penicillin (150 units/ml) and streptomycin (150 »g/ml). When confluent monolayers were formed, the growth medium was removed and 0.3 ml of an appropriate dilution of the virus was added to each flask. After adsorption for one hour at room temperature, the infected cell sheet was overlaid with equal parts of 1 percent Agarose and 2x Medium 199, 2.5 percent FBS, penicillin, and streptomycin. The compound to be tested was dissolved in dimethyl sulfoxide (DMSO) at a concentration of 10,000 »g/ml and an aliquot of the resulting solution was diluted to the desired concentration with the agar medium mixture. Flasks were incubated at 37°C until control flasks indicated optimum plaque size of about 2 to about 10 mm. A solution containing 10 percent formalin by volume and 2 percent sodium acetate by volume was added to each flask to inactivate the virus and fix the cell sheet to the plastic surface. The plaques were counted after staining the surrounding cell areas with crystal violet. Results from duplicate flasks at each concentration were averaged and compared with control flasks. The following degrees of inhibition against HSV-1 were observed.
# [4] = test system: Friends leukemia virus; assay: CPE inhibition in SC-1 cells infected with murine leukemia virus, XC cell overlay; conditions: SC1, 120 h, SC-1 cells from a feral mouse, XC cells added after 5 days, read-out: IC₅₀
# Experimental: The following procedure was used to establish the efficacy of a representative compound of the present invention against Friends leukemia virus. SC-1 cells from a feral mouse were seeded subconfluently at 2-5 x 10³ cells per well in 96 microwell plates with complete MEM media plus 2 mcg/ml polybrene overnight at 37°C under a carbon dioxide atmosphere. The medium was removed. The cultures were infected with a proper dilution of murine leukemia virus (50 mcl/well) and were allowed to adsorb for about two hours at room temperature. After adsorption, the virus containing medium was removed and replaced with fresh complete MEM, both with and without dilutions of the compound of Example 1, and reincubated at 37°C under carbon dioxide for 5 days or until the cells reached confluence. The medium was removed and the cells were exposed for 10 seconds to a UV germicidal light. XC cells from a Rous sarcoma virus induced rat tumor cell line at a concentration of 5-8 x 10⁴ cells/well were added to the irradiated SC-1 monolayers. The cultures were incubated at 37°C under carbon dioxide for three days until CPE occurred in the control wells. Cultures were fixed with formalin and stained with crystal violet. The results were scored as CPE inhibition.
SMILES,IC50 [2] [µg/mL],Inhibition ([3]; concentration 25 (unit ug/ml)) [%],also measured
"Nc1nc2c(ncn2[C@@H]2O[C@H](CO)CC2(F)F)c(=O)[nH]1 [Example 3, β-1-(2-amino-6-oxo-9H-purin-9-yl)-2,3-dideoxy-2,2-difluororibose]",8.5,–,"inhibition at 25 µg/mL ([1]; Human alphaherpesvirus 2, concentration 25 ug/ml): 21%"
"Nc1ccn([C@@H]2O[C@H](CO)CC2(F)F)c(=O)n1 [Example 1, β-1-(4-Amino-2-oxo-1H-pyrimidin-1-yl)-2,3-dideoxy-2,2-difluororibose]",1.9,–,"inhibition at 15 µg/mL ([3]; Human alphaherpesvirus 1, concentration 15 ug/ml): 50%; IC50 [4]: 6.5 µg/mL"
"Cc1cn([C@@H]2O[C@H](CO)[C@@H](N=[N+]=[N-])C2(F)F)c(=O)[nH]c1=O [Example 4, β-1-(5-methyl-2,4-dioxo-1H,3H-pyrimidin-1-yl)-3-azido-2,3-dideoxy-2,2-difluororibose]",23.4,39,Inhibition ([1]; concentration 13.5 (unit ug/ml)): 50%
"Nc1nc(N)c2ncn([C@@H]3O[C@H](CO)CC3(F)F)c2n1 [Example 2, β-1-(2,6-diamino-9H-purin-9-yl)-2,3-dideoxy-2,2-difluororibose]",1.9,–,Inhibition ([3]; concentration 3.1 (unit ug/ml)): 27%
"Cc1cn([C@@H]2O[C@H](CO)CC2(F)F)c(=O)[nH]c1=O [Example 5, β-1-(5-methyl-2,4-dioxo-1H,3H-pyrimidin-1-yl)-2,3-dideoxy-2,2-difluororibose]",> 20,35,–
